Results from US6660830B1, “Peptides with antiproliferative properties” (priority 1996, dated 2003).
Positions of bridges follow the written chain, without caps; N, C: chain ends. Non-standard residues stand in square brackets, D forms with d. Chains are numbered I, II in the order given. No end group written: not given here.

Assays:
[1] = tested on: SAOS-2 cells; test: Cell cycle distribution by FACS in SAOS-2 osteosarcoma cells; format: cell-based, human; settings: for effect on cell cycle phases (words, summary of Table 2): peptide 5x10^-5 M each; for G1 (cell population in G1 phase) / G2/M (cell population in G2/M phase) / S (cell population in S phase): SAOS-2 synchronized in G0/G1, stimulated by 10% FCS for 24 h, peptide 5x10^-5 M, FACS
Protocol: (§1) The experimental setting comprises experiments with the breast cancer cell line MCF-7 containing an intact retinblastoma protein and the human osteosarcoma cell line SAOS-2 containing a defective retinoblastoma protein. Cells are seeded in 12-well plates at 100000 (=one hundred thousand) cells/well/ml in RPMI medium or DMEM medium containing 10% FCS and allowed to adhere for 24 hours. Subsequently, the cells are starved by incubation for 3 days in DMEM without FCS, such that they are synchronized in the G0/G1 phase and then the cells are stimulated by 10% FCS or 10^−8 M IGF-1 or 10^−6 M insulin, respectively, for 24 hours. The effect of each of the added peptides on each of the above modes of stimulation, which effect reflects the rate of cell division, is investigated. The control (cells synchronized in G0/G1) is fixed at time 0 after three days of starvation. The remaining cells (+/−peptide) are fixed after 24 hours. The cells are subsequently analyzed by FACS for their cell cycle distribution. Analogous methods are to be found e.g. in R. Fahraeus et al., Current Biology, 1996, vol. 6, no. 1, pp. 84-91 and L. Zhu et al., Genes & Development, 1993, vol. 7, pp. 1111-1125.

[2] = tested on: normal human peripheral blood mononuclear cells; test: Effect on normal peripheral blood mononuclear cells; format: cell-based; settings: peptide 10^-5 M, 24 hours (FIG. 15)
Protocol: The incubation of cells with P3 was performed for a time period of 24 hours.

[3] = tested on: K562 cells; test: Cytotoxicity by the trypan blue method in K562 leukemia cells; format: cell-based; settings: asynchronously growing K562 in RPMI; peptide 10^-5 M (FIG. 13)
Protocol: The results have been plotted as the living cells treated with P3 being a percentage of the living cells not treated with P3. The number of the living cells has been determined by counting at least 200 cells at each time point according to the trypan blue method.
(§2) The second experimental setting relates to the leukemia cell lines K562 and CCRF-CEM and CCRF-CEM/ACT400. 100000 asynchronously growing cells/well/ml RPMI/10% FCS have each been incubated for 48 hours with each of the peptides in 6-well plates. As a readout, the number of dead cells/200 counted cells is determined according to the trypan blue method (L. D. Attardi et al., The EMBO Journal, 1996, vol. 15, no. 14, pp. 3693-3701 and M. K. Reeder & H. C. Isom, Cell Growth & Differentiation 196, vol. 7, pp. 449-460) after this 48-hour incubation.

[4] = tested on: MCF-7 cells; test: Cell cycle distribution by FACS in MCF-7 breast cancer cells; format: cell-based
[5] = tested on: CCRF-CEM/ACT 400 cells; test: Cytotoxicity by the trypan blue method in CCRF-CEM/ACT 400 resistant leukemia cells; format: cell-based; settings: asynchronously growing CCRF-CEM/ACT 400 resistant cells, RPMI 10% FCS; peptide 10^-5 M (FIG. 14)
Protocol: as §2

[6] = tested on: MCF-7 cells; test: Cell cycle distribution by FACS in MCF-7 breast cancer cells; format: cell-based; settings: for morphology of treated cells: peptide 10^-5 M (FIG. 2, 4, 7, 11, 12); for effect on S phase (words, summary of Table 1): MCF-7 stimulated by IGF-1 10^-8 M or insulin 10^-6 M; for effect on S phase (words, summary of Table 1) / G1 (cell population in G1 phase) / G2/M (cell population in G2/M phase) / S (cell population in S phase): peptide 10^-5 M; for G1 (cell population in G1 phase) / G2/M (cell population in G2/M phase) / S (cell population in S phase): FACS
Protocol: as §1

[7] = tested on: CCRF-CEM cells; test: Cytotoxicity by the trypan blue method in CCRF-CEM sensitive leukemia cells; format: cell-based; settings: asynchronously growing CCRF-CEM sensitive cells, RPMI 10% FCS; peptide 10^-5 M (FIG. 14)
Protocol: as §2

[8] = tested on: SAOS-2 cells; test: Cell cycle distribution by FACS in SAOS-2 osteosarcoma cells; format: cell-based, human; settings: SAOS-2 synchronized in G0/G1, serum-free conditions; peptide 10^-5 M (FIG. 8)
[9] = SAOS-2 stimulated by 10% FCS, peptide 10^-5 M (FIG. 9)
[10] = MCF-7 stimulated by EGF 10^-8 M, peptide 10^-5 M (FIG. 6)
[11] = MCF-7 stimulated by estradiol (E2) 10^-9 M, peptide 10^-5 M (FIG. 6)
[12] = MCF-7 synchronized in G0/G1, serum-free conditions, peptide 10^-5 M (FIG. 1, 3)
[13] = asynchronously growing MCF-7 in DMEM containing 10% FCS, peptide 10^-5 M (FIG. 10)
[14] = MCF-7 stimulated by IGF-1 10^-8 M
[15] = MCF-7 stimulated by IGF-1 10^-8 M, peptide 10^-5 M (FIG. 2, 4, 11, 12)
[16] = MCF-7 synchronized in G0/G1, stimulated by IGF-1 10^-8 M for 24 h
[17] = MCF-7 synchronized in G0/G1, stimulated by insulin 10^-6 M for 24 h

Substance	morphology of treated cells [4, 12]	morphology of treated cells [6, 14]	effect on cell cycle phases [6, 15]	effect on cell cycle phases [6, 12]	effect on cell cycle phases (words, summary of Table 2) ([1]; SAOS-2 stimulated by 10% FCS)	G1 (cell population in G1 phase) [1]	G2/M (cell population in G2/M phase) [1]	S (cell population in S phase) [1]	effect on S phase (words, summary of Table 1) [6]	G1 (cell population in G1 phase) [6, 16]	G2/M (cell population in G2/M phase) [6, 16]	S (cell population in S phase) [6, 16]	further results
I: [dL][dF][dY][dK][dK][dV]GGGK[dR]GKG / II: [dL][dF][dY][dK][dK][dV]GGGK[dR]G / III: [dL][dF][dY][dK][dK][dV]GGG / IV: [dL][dF][dY][dK][dK][dV]GGG (amide I:10-IV:C, I:13-II:C, II:10-III:C) [P3, NH2-[dLdFdYdKdKdV-GGG]4-[1KdRG]2-1KG-COOH]	corresponds to that of apoptotic cells	corresponds to that of apoptotic cells	increase of the G1 and G2/M phases as well as in a decrease of the S phase	reduces the G1 phase and increases the S phase									effect on cell cycle phases [1, 9]: increases the G1 phase and decreases the S phase; morphology of treated cells [1, 9]: corresponds to that of apoptotic cells; effect on normal cells ([2]; activated state (b)): no effect; morphological changes of treated cells ([2]; quiescent or activated): do not show any morphological changes; effect on normal cells ([2]; quiescent state (a)): no effect; cytotoxic effect (living treated cells as percentage of living untreated cells, trypan blue) [3]: time-dependent; morphology of treated cells ([4]; MCF-7, IGF-1 10^-8 M, peptide 5x10^-6 M (FIG. 7)): corresponds to that of apoptotic cells; blocks the progression of the cell cycle caused by IGF-1 ([4]; MCF-7, IGF-1 10^-8 M, several peptide concentrations (FIG. 7)): in a dose-dependent manner; effect on cell cycle phases [4, 10]: increases the G1- and the G2 phases as well as decreases the S phase; morphology of treated cells [4, 10]: corresponds to that of apoptotic cells; effect on cell cycle phases [4, 11]: increases the G1- and the G2 phases as well as decreases the S phase; morphology of treated cells [4, 11]: corresponds to that of apoptotic cells; effect on cell cycle phases [4, 13]: reduces the G1 phase and increases the S phase; morphology of treated cells [4, 13]: corresponds to that of apoptotic cells; cytotoxic effect [5]: act in a cytotoxic manner; cytotoxic effect [7]: act in a cytotoxic manner; effect on cell cycle phases [8]: reduces the G1 phase and increases the S and G2/M phases; morphology of treated cells [8]: corresponds to that of apoptotic cells
NH2-KVLYFKRQIKIWFQNRRMKWKK-COOH (H-KVLYFKRQIKIWFQNRRMKWKK-OH) [P8]		corresponds to that of apoptotic cells	increases the G1 phase and the G2/M phase as well as decreases the S phase										
NH2-[dKdVdLdYdFdKGGG]4-[1KdRG]2-1KG-COOH (H-[dK][dV][dL][dY][dF][dK]GGG[dK][dV][dL][dY][dF][dK]GGG[dK][dV][dL][dY][dF][dK]GGG[dK][dV][dL][dY][dF][dK]GGGK[dR]GK[dR]GKG-OH; also: branched: four arms on polylysine core) [P7s, combination of dKdVdLdYdFdK, hydropathically homologous to P1, and a polylysine core]		corresponds to that of apoptotic cells	increases the G1 phase and the G2/M phase as well as decreases the S phase										
NH2-LFYKKVRQIKIWFQNRRMKWKK-COOH (H-LFYKKVRQIKIWFQNRRMKWKK-OH) [P6]	corresponds to that of apoptotic cells	corresponds to that of apoptotic cells	increases the G1 phase as well as decreases the S phase	reduces the G1 phase and increases the S phase	increase of the G1 phase and a decrease of the S phase	76.6	11.2	12.2	reduce the S phase	53.7	18.6	27.7	S (cell population in S phase) ([4]; MCF-7 synchronized in G0/G1, stimulated by insulin 10^-6 M for 24 h, peptide 10^-5 M, FACS): 36.6; G1 (cell population in G1 phase) [6, 17]: 48.7; G2/M (cell population in G2/M phase) [6, 17]: 14.6
NH2-LFYKKVPKKKRKV-COOH (H-LFYKKVPKKKRKV-OH) [P5]	corresponds to that of apoptotic cells			reduces the G1 phase and increases the S phase	increase of the G1 phase and a decrease of the S phase	73.5	13.3	13.2	reduce the S phase	54.0	13.6	32.4	
